Data on eight compounds can be found in patent publication US8603755B2, “Resistance to auxinic herbicides” (Dow AgroSciences, LLC., priority 2006, dated 2013).

Each structure is given as a SMILES string.

As a reminder, the inhibition is the percentage by which the read-out fell short of the control. Low readings indicate little suppression, high ones strong suppression.

Common to all, as to format: in vivo
Experiment [1] has as its system wild type Col-0 Arabidopsis plants. Put plainly: Foliar spray application in the greenhouse, wild type. Particulars: 12 days after treatment. On the procedure: (§1) FIGS. 8A-8C show a comparison of the effect of a foliar application of 200 g/ha picloram (FIG. 8A), 200 g/ha aminopyralid (FIG. 8B) or 50 g/ha 2,4-D (FIG. 8C) on wild type Col-0 and mutant R009 Arabidopsis plants. Pictures were taken 12 days after treatment of 17-day old plants.
(§2) Arabidopsis seedlings were grown for two weeks in a growth chamber (23° C.; continuous light at 120-150 μE m^−2 sec^−1), then taken to the greenhouse for three days after which plants were sprayed with herbicide using a track-sprayer to deliver the appropriate rate. Plants were then grown in the greenhouse for 12 days (22° C. under supplemented light with a 14 h: 10 h light-dark cycle) prior to photography and evaluation. […] Thus the chemical selectivity of resistance seen in seedling plate assays is maintained in adult plants with foliar exposure to the auxin herbicides.

Experiment [2] deals with Arabidopsis deletion mutant line edm1. Put plainly: Root growth response of deletion mutant edm1. Particulars: edm1, data not shown. How it is done: (§3) FIGS. 5A-5C. Comparison of the effect of DAS534 and 2,4-D on previously characterized mutants. Measurements were performed as described in FIG. 2. Typical root lengths for untreated controls were 20, 39 and 31 mm for tir1-1, axr2-1 and axr1-3 plants respectively. (FIG. 5A) Effect of DAS534 on edm1 and R051. The deletion mutant line edm1 lacks seven genes (At4g11220 through At4g11280) including SGT1b (Tor et al., Plant Cell 14: 993-1003, 2002). Effect of DAS534 (FIG. 5B) and 2,4-D (FIG. 5C) on axr1-3, axr2-1 and tir1-1 compared with R009 and R051.
The R051 mutation was mapped to a 100 kb interval on chromosome 4 around 36 cM between markers C4—36 and C4—37 (FIG. 3). This interval contains 17 genes including At4g11260 which encodes the tetratricopeptide-repeat containing protein, SGT1b (SEQ ID NO: 4). […] The deletion mutant line edm1 lacks seven genes (At4g11220 through At4g11280) including SGT1b (Tor et al., Plant Cell 14: 993-1003, 2002). […] It was also very cross-resistant to picloram (20-fold, data not shown) similar to the Group 2 mutants. To determine if the DAS534-resistant mutants in complementation Group 2 contained mutations in SGT1b, At4g11260 was PCR amplified from genomic DNA from all three of the mutants. […]

In experiment [3] the test system is Arabidopsis mutant axr1-3. Put plainly: Root growth response of mutant axr1-3. How it is done:
as §3
The mutant axr1-3 is defective in the rubinylation mechanism required to activate SCF complexes. […] The axr1-3 mutant was also very resistant to picloram (160-fold). […] This is consistent with its general role in the activation of SCF complexes (Schwechheimer et al., Plant Cell. 14(10):2553-2563, 2002).

For experiment [4], the system named is Arabidopsis mutant tir1-1. Put plainly: Root growth response of mutant tir1-1. On the procedure: as §3
Experiment [5] deals with Group 1 mutant R009 Arabidopsis plants. Briefly: Foliar spray application in the greenhouse, AFB5 mutant. The conditions noted are these: 12 days after treatment. How it is done: as §1, §2
Experiment [6] concerns Arabidopsis Group 1 line R127. Briefly: Root growth dose response of Group 1 line R127. How it is done: (§4) The dose responses of root growth of the mutant lines treated with a variety of auxins were measured to define the level and chemical spectrum of resistance in detail.
Four additional herbicidal compounds were also tested on the Group 1 line, R127.

For experiment [7], the system named is Arabidopsis mutant line R090. Put plainly: Seedling resistance screen, line R090. The conditions noted are these: line R090, allelic to axr1-3. How it is done: (§5) To identify mutants resistant to picolinate auxins, EMS-mutagenized M2 seedlings were screened for resistance to DAS534, a 6-phenylpicolinate auxin (Compound 173 in WO 03/011853A1). The seedlings were grown on agarose medium containing 10 nM DAS534. This concentration was sufficient to produce marked auxinic effects on the seedlings including significant inhibition (60%) of root growth. From a total of 780,100 EMS M2 seedlings, 125 putative resistant mutants were identified by visual inspection. Seeds were recovered from 33 of these plants. Selection of lines for further study was based on the strength of resistance, elimination of potential siblings and the health and fertility of adult plants.
The mutants were crossed with wild-type Col-0 plants and the progeny were analyzed for resistance to DAS534. […] To determine the number of genetic loci identified in this screen, complementation tests were performed by crossing the herbicide-resistant mutants with each other and the known auxin-resistant mutant axr1-3 in a pair-wise fashion. […] Complementation Group 1 contained the mutants R009, R024, R045 and R127, and complementation Group 2 contained the mutants R051, R107 and R118. All seven selectively-resistant mutant lines were phenotypically normal when grown on agarose medium or in soil and they had normal fertility. […]

For experiment [8], the system named is Arabidopsis Group 1 (afb5) and Group 2 (sgt1b) mutant lines. Put plainly: Root growth dose response of picolinate auxin resistant mutants, complementation Groups 1 and 2. How it is done: FIGS. 1A-1D. […] Root lengths of Arabidopsis seedlings were measured 8 days after seeding on plates containing a range of concentrations of the test compounds and are plotted as a percentage of the root length of untreated plants in the same experiment. […] The symbols used for wild type, R009 from complementation Group 1 and R051 from complementation Group 2 are denoted in FIG. 1A.
To identify mutants resistant to picolinate auxins, EMS-mutagenized M2 seedlings were screened for resistance to DAS534, a 6-phenylpicolinate auxin (Compound 173 in WO 03/011853A1). The seedlings were grown on agarose medium containing 10 nM DAS534. […] Selection of lines for further study was based on the strength of resistance, elimination of potential siblings and the health and fertility of adult plants.
as §4

The test system of experiment [9] is Arabidopsis seedlings (wild type / EMS M2). Put plainly: Seedling plate assay on agarose medium, root growth and morphology. On the procedure:
FIGS. 1A-1D. Differential effects of auxins on root growth of mutants from complementation Groups 1 and 2. Root lengths of Arabidopsis seedlings were measured 8 days after seeding on plates containing a range of concentrations of the test compounds and are plotted as a percentage of the root length of untreated plants in the same experiment. Typical root lengths for untreated controls were 21, 21 and 24 mm for wild-type, Group 1, and Group 2 plants respectively. The symbols used for wild type, R009 from complementation Group 1 and R051 from complementation Group 2 are denoted in FIG. 1A.
as §5

With `Nc1c(Cl)c(Cl)nc(C(=O)O)c1Cl` [picloram], the “effect of foliar spray application” value is “profound morphological effects and severely inhibited plant growth” in experiment [1] (200 g/ha, wild type Col-0); “minimal effect” in experiment [5] (200 g/ha). The compound also gave a cross-resistance in experiment [2] of 20 fold. This compound also had a fold resistance in [3] of 160 fold. The “level of resistance, in words” value in [4] is on record as “slightly more resistant”.

In the case of `O=C(O)c1nc(Cl)ccc1Cl` [clopyralid], the fold resistance in experiment [6] is reported as 50 fold.

Turning to `COc1c(Cl)ccc(Cl)c1C(=O)O` [dicamba], in [6], the “resistance or difference in response, in words” value (“resistance or difference” below) is given as “no resistance”.

With `O=C(O)Cc1cccc2ccccc12` [1-naphthylacetic acid], in experiment [6], the “resistance or difference” value is recorded as “no resistance”.

Consider `O=C(O)COc1ccc(Cl)cc1Cl` [2,4-D], for which the “effect of foliar spray application” value in experiment [1] (50 g/ha, wild type) is “auxinic symptoms and growth reduction”; in [5] (50 g/ha), “auxinic symptoms and growth reduction”. The “level of resistance, in words” value in [3] is reported as “high level of resistance”; in [4], “significantly lower levels of resistance to 2,4-D than axr1”. In addition, the “resistance of line R090” value in experiment [7] is recorded as “robust resistance”. Besides, the “cross resistance of DAS534-resistant lines” value in experiment [8] (0.045 μM 2,4-D, seven lines R009, R024, R045, R127, R051, R107, R118) was “negligible resistance”. In addition, the “resistance of the mutant lines, in words” value in experiment [8] (root growth dose response, both complementation groups) was “negligible resistance”.

As to `Nc1c(F)c(-c2ccc(Cl)cc2)nc(C(=O)O)c1Cl` [DAS534, 4-amino-3-chloro-5-fluoro-6-(4-chlorophenyl)pyridine-2-carboxylic acid], the “level of resistance, in words” value in experiment [3] is “high level of resistance”; in experiment [4], “modest level of resistance”. Also, the “resistance of line R090” value in [7] was “robust resistance”. Moreover, in experiment [9] (Arabidopsis thaliana, 10 nM DAS534 in agarose medium), the inhibition at 0.01 µM was determined as 60%. Besides, the “visible auxinic effects on seedlings” value in experiment [9] (wild-type plants, 5 nM DAS534) is “slight agravitopism, have elongated hypocotyls and are unable to fully expand their cotyledons”. Further, the “hypocotyl elongation and cotyledon expansion” value in experiment [8] (Group 1 mutant R127 and Group 2 mutant R051, 5 nM DAS534) was “unaffected”.

Take `O=C(O)c1ccccc1C(=O)Nc1cccc2ccccc12` [napthylphthalamic acid]: the “resistance or difference” value in [6] is reported as “no difference in response”.

Consider `Nc1cc(Cl)nc(C(=O)O)c1Cl` [aminopyralid], for which the “effect of foliar spray application” value in experiment [1] (200 g/ha, wild type Col-0) is “profound morphological effects and severely inhibited plant growth”; in experiment [5] (200 g/ha) it was “minimal effect”.
